Here are results for 16 molecules from patent US12528826B2, “[1,4]oxazepino[2,3-c]quinolinone derivatives as BCL6 inhibitors” (Cancer Research Technology Limited, priority 2019, dated 2026).

The target in this test is T1, Trx-6×His-BCL6 (human BCL6 BTB domain covering amino-acid sequence 5-129) (Homo sapiens, UniProt P41182).
T1 construct: made in house
In words: HTRF assay (BCL6 / BCOR peptide). Particulars: 1 nM Trx-6×His-BCL6, 300 nM BCOR-AF633 peptide, 2 hours incubation at room temperature; read-out: HTRF avg pIC50 (converted). It counts as binding. As to the method: After 2 hours incubation at room temperature the plate was read on a Pherastar FSX (BMG Labtech) plate reader equipped with 337 nm laser excitation filter, a first emission filter at 620 nm and a second emission filter at 665 nm. The % inhibition at each concentration was calculated by normalising FRET ratio to the appropriate high (DMSO with all reagents) and low (DMSO without BCL6) controls.
(Time-resolved FRET reads energy transfer from a long-lived donor to a nearby acceptor.)

In the case of `Cn1c(=O)c2c(c3cc(Nc4nc(N5CCC(F)(CO)CC5)ncc4Cl)ccc31)N[C@@H](C1CC1)C(F)(F)CO2` [Example 9o, (S)-10-((5-chloro-2-(4-fluoro-4-(hydroxymethyl)piperidin-1-yl)pyrimidin-4-yl)amino)-2-cyclopropyl-3,3-difluoro-7-methyl-1,2,3,4-tetrahydro-[1,4]oxazepino[2,3-c]quinolin-6(7H)-one], the IC50 was 9.33 nM.

As for `Cn1c(=O)c2c(c3cc(Nc4nc(N5CCC[C@@H](CO)C5)ncc4Cl)ccc31)N[C@@H](C1CC1)C(F)(F)CO2` [Example 9p, (S)-10-((5-chloro-2-((R)-3-(hydroxymethyl)piperidin-1-yl)pyrimidin-4-yl)amino)-2-cyclopropyl-3,3-difluoro-7-methyl-1,2,3,4-tetrahydro-[1,4]oxazepino[2,3-c]quinolin-6(7H)-one], the IC50 was 2.88 nM.

Take `Cn1c(=O)c2c(c3cc(Nc4nc(N5CCC[C@H](CO)C5)ncc4Cl)ccc31)N[C@@H](C1CC1)C(F)(F)CO2` [Example 9q, (S)-10-((5-chloro-2-((S)-3-(hydroxymethyl)piperidin-1-yl)pyrimidin-4-yl)amino)-2-cyclopropyl-3,3-difluoro-7-methyl-1,2,3,4-tetrahydro-[1,4]oxazepino[2,3-c]quinolin-6(7H)-one]: the IC50 was 4.27 nM.

As for `Cn1c(=O)c2c(c3cc(Nc4nc(N5C[C@H](F)C[C@H](F)C5)ncc4Cl)ccc31)N[C@@H](C1CC1)C(F)(F)CO2` [Example 9s, (S)-10-((5-chloro-2-((3S,5R)-3,5-difluoropiperidin-1-yl)pyrimidin-4-yl)amino)-2-cyclopropyl-3,3-difluoro-7-methyl-1,2,3,4-tetrahydro-[1,4]oxazepino[2,3-c]quinolin-6(7H)-one], the IC50 is 19.5 nM.

With `CN(CC(C)(C)O)c1ncc(Cl)c(Nc2ccc3c(c2)c2c(c(=O)n3C)OCC(F)(F)[C@H](C3CC3)N2)n1` [Example 9u, (S)-10-((5-chloro-2-((2-hydroxy-2-methylpropyl)(methyl)amino)pyrimidin-4-yl)amino)-2-cyclopropyl-3,3-difluoro-7-methyl-1,2,3,4-tetrahydro-[1,4]oxazepino[2,3-c]quinolin-6(7H)-one], the IC50 is 4.17 nM.

On to `CN(CCC(C)(C)O)c1ncc(Cl)c(Nc2ccc3c(c2)c2c(c(=O)n3C)OCC(F)(F)[C@H](C3CC3)N2)n1` [Example 9v, (S)-10-((5-chloro-2-((3-hydroxy-3-methylbutyl)(methyl)amino)pyrimidin-4-yl)amino)-2-cyclopropyl-3,3-difluoro-7-methyl-1,2,3,4-tetrahydro-[1,4]oxazepino[2,3-c]quinolin-6(7H)-one], for which the IC50 is 4.68 nM.

For the molecule `Cn1c(=O)c2c(c3cc(Nc4nc(N5CC6(CN(CC7CC7)C6)C5)ncc4Cl)ccc31)N[C@@H](C1CC1)C(F)(F)CO2` [Example 9w, (S)-10-((5-chloro-2-(6-(cyclopropylmethyl)-2,6-diazaspiro[3.3]heptan-2-yl)pyrimidin-4-yl)amino)-2-cyclopropyl-3,3-difluoro-7-methyl-1,2,3,4-tetrahydro-[1,4]oxazepino[2,3-c]quinolin-6(7H)-one], the IC50 is 2.75 nM.

`Cn1c(=O)c2c(c3cc(Nc4nc(N5CC6(CN(CC7CC7(F)F)C6)C5)ncc4Cl)ccc31)N[C@@H](C1CC1)C(F)(F)CO2` (stereo partly drawn) [Example 9x, (2S)-10-((5-chloro-2-(6-((2,2-difluorocyclopropyl)methyl)-2,6-diazaspiro[3.3]heptan-2-yl)pyrimidin-4-yl)amino)-2-cyclopropyl-3,3-difluoro-7-methyl-1,2,3,4-tetrahydro-[1,4]oxazepino[2,3-c]quinolin-6(7H)-one]: the IC50 was 3.47 nM.

Take `Cn1c(=O)c2c(c3cc(Nc4nc(N5CC6CCC(C5)N6CC5CC5)ncc4Cl)ccc31)N[C@@H](C1CC1)C(F)(F)CO2` [Example 9y, (2S)-10-((5-chloro-2-(8-(cyclopropylmethyl)-3,8-diazabicyclo[3.2.1]octan-3-yl)pyrimidin-4-yl)amino)-2-cyclopropyl-3,3-difluoro-7-methyl-1,2,3,4-tetrahydro-[1,4]oxazepino[2,3-c]quinolin-6(7H)-one]: the IC50 was 2.75 nM.

Turning to `Cn1c(=O)c2c(c3cc(Nc4nc(N5CC6CCC(C5)N6CC5CC5(F)F)ncc4Cl)ccc31)N[C@@H](C1CC1)C(F)(F)CO2` (stereo partly drawn) [Example 9za, (2S)-10-((5-chloro-2-(8-((2,2-difluorocyclopropyl)methyl)-3,8-diazabicyclo[3.2.1]octan-3-yl)pyrimidin-4-yl)amino)-2-cyclopropyl-3,3-difluoro-7-methyl-1,2,3,4-tetrahydro-[1,4]oxazepino[2,3-c]quinolin-6(7H)-one], the IC50 was 7.59 nM.

For `C[C@@H]1C[C@@H](O)CN(c2ncc(Cl)c(Nc3ccc4c(c3)c3c(c(=O)n4C)OCC(F)(F)[C@H](C4CC4)N3)n2)C1` [Example 9zb, (S)-10-((5-chloro-2-((3R,5R)-3-hydroxy-5-methylpiperidin-1-yl)pyrimidin-4-yl)amino)-2-cyclopropyl-3,3-difluoro-7-methyl-1,2,3,4-tetrahydro-[1,4]oxazepino[2,3-c]quinolin-6(7H)-one], the IC50 is 9.77 nM.

In the case of `CN1CCCN(c2ncc(Cl)c(Nc3ccc4c(c3)c3c(c(=O)n4C)OCC(F)(F)[C@H](C4CC4)N3)n2)CC1` [Example 11a, (2S)-10-[[5-chloro-2-(4-methyl-1,4-diazepan-1-yl)pyrimidin-4-yl]amino]-2-cyclopropyl-3,3-difluoro-7-methyl-2,4-dihydro-1H-[1,4]oxazepino[2,3-c]quinolin-6-one], the IC50 is 2.75 nM.

`Cn1c(=O)c2c(c3cc(Nc4nc(N5C[C@H](O)C[C@H](O)C5)ncc4Cl)ccc31)N[C@@H](C1CC1)C(F)(F)CO2` [Example 11e, (S)-10-((5-chloro-2-((3R,5S)-3,5-dihydroxypiperidin-1-yl)pyrimidin-4-yl)amino)-2-cyclopropyl-3,3-difluoro-7-methyl-1,2,3,4-tetrahydro-[1,4]oxazepino[2,3-c]quinolin-6(7H)-one]: the IC50 is 0.871 nM.

In the case of `CCCN(C)c1ncc(Cl)c(Nc2ccc3c(c2)c2c(c(=O)n3C)OCC(F)(F)[C@H](C3CC3)N2)n1` [Example 11i, (S)-10-((5-chloro-2-(methyl(propyl)amino)pyrimidin-4-yl)amino)-2-cyclopropyl-3,3-difluoro-7-methyl-1,2,3,4-tetrahydro-[1,4]oxazepino[2,3-c]quinolin-6(7H)-one], the IC50 is 30.9 nM.

Consider `CCCN(CCO)c1ncc(Cl)c(Nc2ccc3c(c2)c2c(c(=O)n3C)OCC(F)(F)[C@H](C3CC3)N2)n1` [Example 11k, (S)-10-((5-chloro-2-((2-hydroxyethyl)(propyl)amino)pyrimidin-4-yl)amino)-2-cyclopropyl-3,3-difluoro-7-methyl-1,2,3,4-tetrahydro-[1,4]oxazepino[2,3-c]quinolin-6(7H)-one], for which the IC50 is 9.77 nM.

On to `Cn1c(=O)c2c(c3cc(Nc4nc(N5CCCC6(CC6)C5)ncc4Cl)ccc31)N[C@@H](C1CC1)C(F)(F)CO2` [Example 11l, (S)-10-((5-chloro-2-(5-azaspiro[2.5]octan-5-yl)pyrimidin-4-yl)amino)-2-cyclopropyl-3,3-difluoro-7-methyl-1,2,3,4-tetrahydro-[1,4]oxazepino[2,3-c]quinolin-6(7H)-one], for which the IC50 is 44.7 nM.
